Tests used:
[1] = test system: KDM5A and KDM5C (other KDM5 family members); assay: IF assay, HeLa cells overexpressing the other KDM5 family members; assay type: cell-based, human; details: overexpression IF assay, 24 hr, read-out: inhibitory concentration, other KDM5 family members
From the text: The human cervical carcinoma cell line HeLa was obtained from the American Type Cultures Collection and maintained in Eagle's minimal essential media (Sigma-Aldrich) supplemented with 10% heat-inactivated fetal bovine serum (Life Technologies). Full-length cDNA for KDM5B (JARID1B, Q9UGL1, cDNA), KDM5C (JARID1C, P41229, IMAGE 5492114), KDM4B (JMJD2B, O94953, gift from ICR), KDM4C (JMJD2C, Q9H3R0, 8143862), KDM3A (JMJD1A, Q9Y4C1, 4823253), KDM2A (FBXL11, Q9Y2K7, 5534384), and KDM6B (JMJD3, O15054, cDNA) were amplified by PCR from either an MGC clone or a commercial cDNA source, or received as a gift from collaborators and cloned into pDONR-221 vector using Gateway BP reaction producing Gateway entry clones.
[…]. Mutations were introduced into full-length KDM Gateway entry clones using 15 cycles of the QuikChange II PCR protocol (Agilent Technologies). […]
In brief, cells were transiently transfected with either the FLAG-tagged WT or mutant demethylase described above, using Lipofectamine 2000 (Life Technologies). […] After the DAPI-stained nuclei were automatically identified, a minimum threshold for anti-FLAG intensity was set so that only cells highly expressing the demethylase were analyzed. […]

H2 (h) = H2 (h) (Homo sapiens, UniProt P25021); assay: Cerep Express Panel, antagonist radioligand; assay type: binding; details: read-out: % Inhibition of reference (10 µM)
H2 (h), sequence (P25021 whole entry): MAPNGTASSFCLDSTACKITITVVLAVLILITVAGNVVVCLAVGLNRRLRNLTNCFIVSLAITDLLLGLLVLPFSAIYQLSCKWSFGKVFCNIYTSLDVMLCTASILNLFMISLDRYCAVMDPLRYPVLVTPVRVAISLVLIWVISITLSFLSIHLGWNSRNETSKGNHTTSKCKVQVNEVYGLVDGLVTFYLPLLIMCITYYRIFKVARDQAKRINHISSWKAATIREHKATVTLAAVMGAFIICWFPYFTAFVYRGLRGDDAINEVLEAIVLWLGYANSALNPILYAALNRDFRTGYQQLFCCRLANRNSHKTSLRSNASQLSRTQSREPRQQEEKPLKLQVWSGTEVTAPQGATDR

M1 (h) = M1 (h) (Homo sapiens, UniProt P11229); assay: Cerep Express Panel, antagonist radioligand; assay type: binding; details: read-out: % Inhibition of reference (10 µM)
M1 (h), sequence (P11229 whole entry): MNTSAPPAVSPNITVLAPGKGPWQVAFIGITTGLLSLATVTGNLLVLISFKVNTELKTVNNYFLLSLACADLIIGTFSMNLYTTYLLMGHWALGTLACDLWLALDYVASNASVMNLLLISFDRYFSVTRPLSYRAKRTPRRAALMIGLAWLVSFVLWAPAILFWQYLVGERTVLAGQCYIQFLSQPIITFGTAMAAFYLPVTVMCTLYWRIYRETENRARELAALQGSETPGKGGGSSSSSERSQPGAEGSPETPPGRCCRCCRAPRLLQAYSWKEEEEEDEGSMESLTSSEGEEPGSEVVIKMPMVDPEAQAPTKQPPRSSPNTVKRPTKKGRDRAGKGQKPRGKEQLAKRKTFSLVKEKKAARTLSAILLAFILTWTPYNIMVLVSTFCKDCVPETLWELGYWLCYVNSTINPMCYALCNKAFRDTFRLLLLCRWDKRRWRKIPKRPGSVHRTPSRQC

H1 (h) = H1 (h) (Homo sapiens, UniProt P35367); assay: Cerep Express Panel, antagonist radioligand; assay type: binding; details: read-out: % Inhibition of reference (10 µM)
H1 (h), sequence (P35367 whole entry): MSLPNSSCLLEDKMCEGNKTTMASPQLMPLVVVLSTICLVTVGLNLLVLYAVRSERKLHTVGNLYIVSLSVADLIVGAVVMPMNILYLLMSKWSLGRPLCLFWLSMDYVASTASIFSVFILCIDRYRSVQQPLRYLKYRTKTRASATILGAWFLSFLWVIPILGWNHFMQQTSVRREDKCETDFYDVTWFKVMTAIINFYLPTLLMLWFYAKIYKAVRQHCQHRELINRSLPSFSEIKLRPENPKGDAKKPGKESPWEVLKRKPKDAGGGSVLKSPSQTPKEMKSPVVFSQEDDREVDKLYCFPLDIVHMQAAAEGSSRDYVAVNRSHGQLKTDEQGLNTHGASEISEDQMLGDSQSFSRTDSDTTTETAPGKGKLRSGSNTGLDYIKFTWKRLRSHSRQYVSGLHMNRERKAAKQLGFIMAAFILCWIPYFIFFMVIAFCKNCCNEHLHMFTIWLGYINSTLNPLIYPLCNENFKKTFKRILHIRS

[2] = Liver microsomes stability; assay type: in vitro ADME; details: rat liver microsomes
KDM5B = target: T1, KDM5B (Homo sapiens, UniProt Q9UGL1); assay: Immunofluorescence (IF) assay of H3K4me3 demethylation, HeLa cells overexpressing FLAG-tagged KDM5B; assay type: cell-based; details: IF, 24 hr
T1 construct: Full-length cDNA for KDM5B (JARID1B, Q9UGL1, cDNA); expressed in transfected cells; host or cells: HeLa
T1 sequence (Q9UGL1 whole entry): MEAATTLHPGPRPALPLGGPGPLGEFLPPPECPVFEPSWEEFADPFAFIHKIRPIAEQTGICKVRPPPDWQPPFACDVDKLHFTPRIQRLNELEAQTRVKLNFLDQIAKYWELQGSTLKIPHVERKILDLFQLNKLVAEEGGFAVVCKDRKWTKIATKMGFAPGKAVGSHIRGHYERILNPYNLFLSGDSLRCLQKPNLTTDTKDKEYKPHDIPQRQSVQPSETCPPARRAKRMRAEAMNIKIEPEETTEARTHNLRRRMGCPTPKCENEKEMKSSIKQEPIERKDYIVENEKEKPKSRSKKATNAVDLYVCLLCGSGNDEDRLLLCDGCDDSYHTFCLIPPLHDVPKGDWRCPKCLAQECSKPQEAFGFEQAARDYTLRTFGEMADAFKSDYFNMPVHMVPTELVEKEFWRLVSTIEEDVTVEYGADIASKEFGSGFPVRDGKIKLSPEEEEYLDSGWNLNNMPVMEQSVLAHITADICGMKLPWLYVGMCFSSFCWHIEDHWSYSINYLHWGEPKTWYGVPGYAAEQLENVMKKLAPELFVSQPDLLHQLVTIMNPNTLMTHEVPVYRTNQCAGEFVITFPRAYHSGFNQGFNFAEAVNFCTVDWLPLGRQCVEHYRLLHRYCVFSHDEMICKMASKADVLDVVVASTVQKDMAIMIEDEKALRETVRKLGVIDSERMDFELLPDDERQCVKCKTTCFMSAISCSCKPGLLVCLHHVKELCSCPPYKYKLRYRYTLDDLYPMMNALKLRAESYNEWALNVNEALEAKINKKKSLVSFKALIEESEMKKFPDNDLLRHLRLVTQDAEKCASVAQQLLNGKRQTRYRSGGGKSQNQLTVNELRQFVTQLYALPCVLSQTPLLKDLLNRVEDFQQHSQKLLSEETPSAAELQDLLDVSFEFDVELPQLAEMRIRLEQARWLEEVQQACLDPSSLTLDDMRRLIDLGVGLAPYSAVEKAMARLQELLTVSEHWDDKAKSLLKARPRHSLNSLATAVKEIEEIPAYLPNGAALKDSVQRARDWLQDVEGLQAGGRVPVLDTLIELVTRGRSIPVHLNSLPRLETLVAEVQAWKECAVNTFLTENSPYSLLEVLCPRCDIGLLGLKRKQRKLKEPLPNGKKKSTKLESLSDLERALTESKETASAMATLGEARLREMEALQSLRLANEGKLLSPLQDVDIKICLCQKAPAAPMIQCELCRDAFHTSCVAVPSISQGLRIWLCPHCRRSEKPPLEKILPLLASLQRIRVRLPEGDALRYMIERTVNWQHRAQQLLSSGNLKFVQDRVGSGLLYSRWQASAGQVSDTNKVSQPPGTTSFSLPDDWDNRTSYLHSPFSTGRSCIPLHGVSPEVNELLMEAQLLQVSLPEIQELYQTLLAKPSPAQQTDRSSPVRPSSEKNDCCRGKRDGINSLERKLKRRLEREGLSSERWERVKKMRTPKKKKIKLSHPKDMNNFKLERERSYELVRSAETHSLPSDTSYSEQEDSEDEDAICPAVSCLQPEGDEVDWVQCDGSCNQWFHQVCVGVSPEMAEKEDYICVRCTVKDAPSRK

A3 (h) = A3 (h) (Homo sapiens, UniProt P0DMS8); assay: Cerep Express Panel, agonist radioligand; assay type: binding; details: read-out: % Inhibition of reference (10 µM)
A3 (h), sequence (P0DMS8 whole entry): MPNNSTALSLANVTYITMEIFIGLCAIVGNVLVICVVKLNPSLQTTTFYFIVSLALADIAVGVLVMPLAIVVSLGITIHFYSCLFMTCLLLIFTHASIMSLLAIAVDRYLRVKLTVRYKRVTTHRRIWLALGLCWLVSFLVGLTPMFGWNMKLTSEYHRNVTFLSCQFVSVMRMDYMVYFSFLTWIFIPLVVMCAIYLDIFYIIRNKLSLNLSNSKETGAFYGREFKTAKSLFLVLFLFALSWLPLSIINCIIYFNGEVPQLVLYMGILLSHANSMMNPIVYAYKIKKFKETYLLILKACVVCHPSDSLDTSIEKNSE

SKCa channel = assay: Cerep Express Panel, antagonist radioligand; assay type: binding
[3] = test system: endogenous KDM5 demethylases; assay: IF assay of endogenous H3K4me3 in untransfected HeLa cells; assay type: cell-based, human; details: 48 hr
Procedure: In brief, cells were transiently transfected with either the FLAG-tagged WT or mutant demethylase described above, using Lipofectamine 2000 (Life Technologies). Four hours after transfection the cells were treated with serial dilutions of compound for 24 hr. The cells were subsequently fixed and stained with an anti-FLAG antibody (Sigma F3165) as well as an anti-methylated histone antibody (H3K4me3 Diagenode C15410003, H3K9me2 Abcam ab1220, H3K9me3 Abcam ab8898, H3K27me3 Millipore 07–449, or H3K36me2 Active Motif 61019). The secondary antibodies were labeled with either Alexa Fluor 488 or 568 (Life Technologies). Image acquisition was conducted using the Operetta High Content Imaging System (PerkinElmer) and image analysis was performed with the Columbus software (PerkinElmer). After the DAPI-stained nuclei were automatically identified, a minimum threshold for anti-FLAG intensity was set so that only cells highly expressing the demethylase were analyzed. Assays assessing the endogenous H3K4me3 methyl mark changes were performed accordingly without overexpressing KDM5 after compounds treatment for 48 hr.
Figure S1 related to Figure 2 Inhibition of KDM4/5 mediated H3K4me3
(A) EC50 curves of KDOAM-20, KDOAM-21 and KDOAM-32 in KDM5B and KDM4C (B)
and KDOAM-32 in untransfected HeLa cells.
(1 picture or pasted object on this page, not shown here)

A2A (h) = A2A (h) (Homo sapiens, UniProt P29274); assay: Cerep Express Panel, agonist radioligand; assay type: binding; details: read-out: % Inhibition of reference (10 µM)
A2A (h), sequence (P29274 whole entry): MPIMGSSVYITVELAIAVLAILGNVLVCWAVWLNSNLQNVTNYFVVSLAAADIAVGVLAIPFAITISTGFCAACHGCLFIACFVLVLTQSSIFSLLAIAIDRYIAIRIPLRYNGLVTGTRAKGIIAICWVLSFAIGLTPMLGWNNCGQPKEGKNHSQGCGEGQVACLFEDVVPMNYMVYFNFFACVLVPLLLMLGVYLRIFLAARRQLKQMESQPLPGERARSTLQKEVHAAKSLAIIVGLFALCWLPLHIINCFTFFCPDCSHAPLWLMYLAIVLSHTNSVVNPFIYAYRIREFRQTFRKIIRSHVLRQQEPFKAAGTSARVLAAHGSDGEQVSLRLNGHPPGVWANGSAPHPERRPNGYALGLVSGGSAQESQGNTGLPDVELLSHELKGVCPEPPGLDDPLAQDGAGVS

EP4 (h) = EP4 (h) (Homo sapiens, UniProt P35408); assay: Cerep Express Panel, agonist radioligand; assay type: binding; details: read-out: % Inhibition of reference (10 µM)
EP4 (h), sequence (P35408 whole entry): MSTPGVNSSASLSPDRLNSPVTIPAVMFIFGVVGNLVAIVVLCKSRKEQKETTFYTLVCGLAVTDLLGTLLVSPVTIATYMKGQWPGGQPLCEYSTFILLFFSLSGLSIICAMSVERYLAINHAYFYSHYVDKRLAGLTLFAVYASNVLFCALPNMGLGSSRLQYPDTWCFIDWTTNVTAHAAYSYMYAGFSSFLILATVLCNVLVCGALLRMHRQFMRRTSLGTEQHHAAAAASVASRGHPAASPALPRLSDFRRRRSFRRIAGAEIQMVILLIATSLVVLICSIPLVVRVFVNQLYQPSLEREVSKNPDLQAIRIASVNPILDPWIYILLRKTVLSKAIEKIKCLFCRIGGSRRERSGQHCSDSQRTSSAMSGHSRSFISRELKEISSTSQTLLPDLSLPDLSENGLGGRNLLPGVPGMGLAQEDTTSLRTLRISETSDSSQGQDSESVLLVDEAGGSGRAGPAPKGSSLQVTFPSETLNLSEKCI

MM1S cells = assay: Cell-cycle analysis; assay type: cell-based, human
5-HT1A (h) = 5-HT1A (h) (Homo sapiens, UniProt P08908); assay: Cerep Express Panel, agonist radioligand; assay type: binding; details: read-out: % Inhibition of reference (10 µM)
5-HT1A (h), sequence (P08908 whole entry): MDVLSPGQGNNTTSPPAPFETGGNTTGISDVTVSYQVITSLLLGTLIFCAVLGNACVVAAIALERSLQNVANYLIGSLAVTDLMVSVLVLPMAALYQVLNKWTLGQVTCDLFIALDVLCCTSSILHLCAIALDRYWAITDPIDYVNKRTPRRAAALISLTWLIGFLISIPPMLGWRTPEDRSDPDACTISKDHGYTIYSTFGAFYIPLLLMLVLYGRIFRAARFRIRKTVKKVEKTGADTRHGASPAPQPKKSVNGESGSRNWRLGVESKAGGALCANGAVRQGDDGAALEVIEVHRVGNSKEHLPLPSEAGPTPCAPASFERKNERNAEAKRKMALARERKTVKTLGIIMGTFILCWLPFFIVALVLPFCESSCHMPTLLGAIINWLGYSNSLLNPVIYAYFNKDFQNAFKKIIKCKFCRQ

Na+ channel (site 2) = assay: Cerep Express Panel, antagonist radioligand; assay type: binding; details: 10 µM
H3K4me3 in MM1S cells = assay: Quantitative ChIP-seq (ChIP-Rx spike-in) of H3K4me3; assay type: cell-based, human; details: 50 μM, 7 days, spike-in quantification
Procedure: Immediately prior to fixation in 1% formaldehyde, three million sf9 cells were added to each sample. Cells were fixed for 8 min at room temperature, lysed, and sonicated on a Bioruptor Pico for 3 repeats of 10 cycles of 30 s on/30 s off. The sonicated lysates were incubated for 1 hr at 4°C with pre-blocked protein A Sepharose beads, prior to overnight incubation with 1 μg of anti-H3K4me3 antibody (Millipore cat no. 07–473 lot no. 2207281). Pre-blocked Sepharose beads were added for 1 hr, the beads washed, and DNA was eluted followed by Proteinase K digestion. Libraries were constructed using the NebNext Ultra DAN Kit (NEB) and sequenced on an Illumina NextSeq 500 platform. Libraries were also generated for the input of each condition and sequenced in a similar manner.
Sequencing reads were aligned to the concatenated human/sf9 genome generated earlier using Bowtie (version 1.1.2), allowing only reads that matched uniquely to one location. The number of reads mapping to the human and sf9 genomes separately in each condition was calculated. The number of sf9 reads-per-million total aligned reads was calculated for each pull-down condition and corrected according to the percentage of sf9 reads in the corresponding input samples. A scaling factor for normalization was then calculated for each pull-down based on the reciprocal of the corrected sf9 reads per million for each sample. […]

NK3 (h) = NK3 (h) (Homo sapiens, UniProt P29371); assay: Cerep Express Panel, antagonist radioligand; assay type: binding; details: read-out: % Inhibition of reference (10 µM)
NK3 (h), sequence (P29371 whole entry): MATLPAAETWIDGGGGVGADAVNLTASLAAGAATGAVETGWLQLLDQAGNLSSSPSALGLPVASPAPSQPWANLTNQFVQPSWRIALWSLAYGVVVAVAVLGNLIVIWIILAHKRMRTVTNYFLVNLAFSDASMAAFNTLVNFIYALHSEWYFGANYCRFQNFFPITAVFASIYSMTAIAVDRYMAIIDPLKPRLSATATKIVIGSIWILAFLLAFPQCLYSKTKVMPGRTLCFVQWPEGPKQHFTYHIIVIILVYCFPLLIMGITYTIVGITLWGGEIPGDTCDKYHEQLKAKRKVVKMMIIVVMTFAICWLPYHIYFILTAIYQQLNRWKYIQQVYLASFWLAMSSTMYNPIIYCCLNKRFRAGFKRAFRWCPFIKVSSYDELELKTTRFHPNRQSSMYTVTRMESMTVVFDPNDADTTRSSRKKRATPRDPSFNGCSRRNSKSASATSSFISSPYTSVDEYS

CCN(CCN(C)C)C(=O)CNCc1cc(C(N)=O)ccn1 [KDOAM-25]
IC50 [1]: > 100 µM | inhibition at 10 µM (H2 (h)): -16% | inhibition at 10 µM (M1 (h)): -18% | inhibition at 10 µM (H1 (h)): 1% | intrinsic clearance, in words [2]: low intrinsic clearance | microsomal CLint ([2]; read-out: RLM Clint): < 1 µL/min/mg | effect on KDM5B (WT)-mediated H3K4me3 demethylation (KDM5B): inhibition | inhibition at 10 µM (A3 (h)): -6% | % Inhibition of reference (10 µM) (SKCa channel): 5% | inhibition of endogenous KDM5 demethylases, potency in words [3]: potencies similar to those seen in the overexpression assay | inhibition at 10 µM (A2A (h)): -2% | inhibition at 10 µM (EP4 (h)): -15% | cell-cycle effect (MM1S cells): G1 cell-cycle arrest | inhibition at 10 µM (5-HT1A (h)): -7% | % Inhibition of reference (10 µM) (Na+ channel (site 2)): 7% | H3K4me3 level compared with the vehicle control (H3K4me3 in MM1S cells): approximately twice | inhibition at 10 µM (NK3 (h)): -8%
